Experimental data taken from patent US11242334B2, “Heterocyclic compounds as kinase inhibitors, compositions comprising the heterocyclic compound, and methods of use thereof” (JS INNOPHARM (SHANGHAI) LTD, priority 2017, dated 2022).

What was measured:
Colo205 cell line = assay: Colo205 cell proliferation assay (MTT assay, WST-8 readout); format: cell-based; settings: Homo sapiens; IC50 values of growth inhibition in Colo 205 cells; 72 hours
Summary of the method: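 Growth-inhibition IC50 was derived from WST-8 absorbance at 450 nm (2 h development) after 72 h compound exposure at 37° C. Exposure used final 50 μM–0.005 μM compound in 0.5% DMSO. Colo205 cells had been plated at 5,000/well in RPMI-1640 plus 10% FBS and allowed 24 h to attach.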

human ERK2 = target: T1, human ERK2 (Homo sapiens, UniProt P28482); assay: LanthaScreen TR-FRET enzymatic assay, ERK2; settings: IC50 values of ERK2 biochemical activity; 5 μM ATP, 400 nM ATF2-GFP substrate
T1 construct: recombinantly expressed as GST-tagged full-length protein purified from E. coli; GST; purchased Invitrogen PV3311; host or cells: E. coli
Procedure: Compounds were tested in a LanthaScreen™ time-resolved fluorescence energy transfer (TR-FRET) enzymatic assay from Invitrogen. The assay used human ERK2 (Mitogen Activated Kinase 1, Invitrogen, Cat. PV3311) recombinantly expressed as GST-tagged full-length protein purified from E. coli and activated in vitro with MAP2K1. The substrate was a recombinant truncated version (residues 19-96) of ATF2 fused with Green Fluorescent Protein (Invitrogen, Cat. PV4445). Test compounds were prepared and diluted in DMSO in 3-fold serial dilutions to 100× of the final testing concentrations. The compounds were then further diluted to 4× by the kinase reaction buffer (Invitrogen, Cat. PV3189). The enzymatic reaction for compound testing was performed in a white 384-well polypropylene plate (Packard, Cat. 6005214) with a total reaction volume of 10 μl containing 20 ng/ml ERK2, 400 nM substrate, and 5 μM ATP that is around its Km. The assay started with loading 2.5 μl of ERK2 diluted in kinase reaction buffer to wells, followed by addition of equal volume of 4× compounds for 15-min incubation at the room temperature for pre-treatment. The enzymatic reaction was initiated by addition of 5 μl of mixture of the substrate and ATP prepared in kinase reaction buffer. After one hour reaction, 10 μl mixture of EDTA (final 10 mM) and terbium-labeled anti-pATF2 (pThr71) antibody (final 2 nM) (Invitrogen, Cat. PV4451) prepared in TR-FRET antibody dilution buffer (Invitrogen, Cat. PV3574) was added to stop the enzymatic reaction and produce TR-FRET signals. After 30 minutes of incubation at room temperature, the plate was read in Tecan Infinite F200 Pro with the following settings: Excitation 340 nm (30)/Emission1 495 nm (10)/Emission2 520 nm (25). The TR-FRET values were dimensionless numbers that were calculated as the ratio of the acceptor ([…]) signal to the donor (Terbium) signal. Percent of control was calculated as the percentage of compound-treated vs 1% DMSO vehicle-treated. The dose-response curves were generated and the ICsos were calculated by nonlinear sigmoid curve fitting using GraphPad Prism.
The IC50 values of ERK2 biochemical activity for the examples disclosed herein are listed in Table 3, A: ≤10 nM; B: >10 nM and ≤50 nM; C: >50 nM and ≤100 nM; D.>100 nM.

T1 sequence (P28482 whole entry): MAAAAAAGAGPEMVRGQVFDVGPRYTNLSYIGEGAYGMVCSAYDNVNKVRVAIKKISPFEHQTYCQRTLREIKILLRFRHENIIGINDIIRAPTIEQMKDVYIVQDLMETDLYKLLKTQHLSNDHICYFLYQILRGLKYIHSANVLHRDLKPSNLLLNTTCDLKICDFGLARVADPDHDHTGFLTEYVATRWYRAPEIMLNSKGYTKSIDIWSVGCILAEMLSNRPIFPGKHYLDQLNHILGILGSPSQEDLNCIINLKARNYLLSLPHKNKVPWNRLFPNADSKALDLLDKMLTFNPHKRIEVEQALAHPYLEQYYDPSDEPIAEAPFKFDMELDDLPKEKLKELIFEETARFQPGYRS

Structure (SMILES) | IC50 (Colo205 cell line) [nM] | IC50 (human ERK2) [nM]
CC(C)Oc1ccc(-c2n[nH]c3ccc(-c4ccn([C@H](CO)c5cccc(Br)c5)c(=O)c4)cc23)cn1 [Example 44, (S)-1-(1-(3-bromophenyl)-2-hydroxyethyl)-4-(3-(6-isopropoxypyridin-3-yl)-1H-indazol-5-yl)pyridin-2(1H)-one] | 500 to 1000 | < 10
Cn1cc(-c2n[nH]c3ccc(-c4ccn([C@H](CO)c5cccc(Br)c5)c(=O)c4)cc23)cn1 [Example 45, (S)-1-(1-(3-bromophenyl)-2-hydroxyethyl)-4-(3-(1-methyl-1H-pyrazol-4-yl)-1H-indazol-5-yl)pyridin-2(1H)-one] | ≤ 500 | < 10
Cn1cc(-c2n[nH]c3ccc(-c4ccn([C@H](CO)c5ccc(F)c(Br)c5)c(=O)c4)cc23)cn1 [Example 46, (S)-1-(1-(3-bromo-4-fluorophenyl)-2-hydroxyethyl)-4-(3-(1-methyl-1H-pyrazol-4-yl)-1H-indazol-5-yl)pyridin-2(1H)-one] | ≤ 500 | < 10
Cn1cc(-c2n[nH]c3ccc(-c4ccn([C@H](CO)c5cccc(I)c5)c(=O)c4)cc23)cn1 [Example 47, (S)-1-(2-hydroxy-1-(3-iodophenyl)ethyl)-4-(3-(1-methyl-1H-pyrazol-4-yl)-1H-indazol-5-yl)pyridin-2(1H)-one] | ≤ 500 | < 10
CC(C)Oc1ccc(-c2n[nH]c3ccc(-c4ccn([C@H](CO)c5cccc(I)c5)c(=O)c4)cc23)cn1 [Example 48, (S)-1-(2-hydroxy-1-(3-iodophenyl)ethyl)-4-(3-(6-isopropoxypyridin-3-yl)-1H-indazol-5-yl)pyridin-2(1H)-one] | 500 to 1000 | < 10
Cc1cc(-c2n[nH]c3ccc(-c4ccn([C@H](CO)c5cccc(I)c5)c(=O)c4)cc23)ccn1 [Example 49, (S)-1-(2-hydroxy-1-(3-iodophenyl)ethyl)-4-(3-(2-methylpyridin-4-yl)-1H-indazol-5-yl)pyridin-2(1H)-one] | ≤ 500 | < 10
O=c1cc(-c2ccc3[nH]nc(-c4cnn(C5CC5)c4)c3c2)ccn1[C@H](CO)c1ccc(F)c(Cl)c1 [Example 50, (S)-1-(1-(3-chloro-4-fluorophenyl)-2-hydroxyethyl)-4-(3-(1-cyclopropyl-1H-pyrazol-4-yl)-1H-indazol-5-yl)pyridin-2(1H)-one] | 500 to 1000 | < 10
O=c1cc(-c2ccc3[nH]nc(-c4cnn(C(F)F)c4)c3c2)ccn1[C@H](CO)c1ccc(F)c(Cl)c1 [Example 51, (S)-1-(1-(3-chloro-4-fluorophenyl)-2-hydroxyethyl)-4-(3-(1-(difluoromethyl)-1H-pyrazol-4-yl)-1H-indazol-5-yl)pyridin-2(1H)-one] | ≤ 500 | < 10
COCCn1cc(-c2n[nH]c3ccc(-c4ccn([C@H](CO)c5ccc(F)c(Cl)c5)c(=O)c4)cc23)cn1 [Example 52, (S)-1-(1-(3-chloro-4-fluorophenyl)-2-hydroxyethyl)-4-(3-(1-(2-methoxyethyl)-1H-pyrazol-4-yl)-1H-indazol-5-yl)pyridin-2(1H)-one] | 1000 to 5000 | < 10
Cc1cc(-c2n[nH]c3ccc(-c4ccn(Cc5cccc(Cl)c5)c(=O)c4)cc23)ccn1 [Example 53, 1-(3-chlorobenzyl)-4-(3-(2-methylpyridin-4-yl)-1H-indazol-5-yl)pyridin-2(1H)-one] | 500 to 1000 | < 10
Cc1cc(-c2n[nH]c3ccc(-c4ccn(Cc5cc(Br)ccc5F)c(=O)c4)cc23)ccn1 [Example 55, 1-(5-bromo-2-fluorobenzyl)-4-(3-(2-methylpyridin-4-yl)-1H-indazol-5-yl)pyridin-2(1H)-one] | ≤ 500 | < 10
Cc1cc(-c2n[nH]c3ccc(-c4ccn(Cc5ccc(F)c(Br)c5)c(=O)c4)cc23)ccn1 [Example 56, 1-(3-bromo-4-fluorobenzyl)-4-(3-(2-methylpyridin-4-yl)-1H-indazol-5-yl)pyridin-2(1H)-one] | 500 to 1000 | < 10
Cc1cc(-c2n[nH]c3ccc(-c4ccn(Cc5cccc(I)c5)c(=O)c4)cc23)ccn1 [Example 57, 1-(3-iodobenzyl)-4-(3-(2-methylpyridin-4-yl)-1H-indazol-5-yl)pyridin-2(1H)-one] | ≤ 500 | < 10
Cc1cc(-c2n[nH]c3ccc(-c4ccn(Cc5cc(F)cc(Cl)c5)c(=O)c4)cc23)ccn1 [Example 58, 1-(3-chloro-5-fluorobenzyl)-4-(3-(2-methylpyridin-4-yl)-1H-indazol-5-yl)pyridin-2(1H)-one] | 500 to 1000 | < 10
Cc1cc(-c2n[nH]c3ccc(-c4ccn(Cc5ccccc5C(F)(F)F)c(=O)c4)cc23)ccn1 [Example 59, 4-(3-(2-methylpyridin-4-yl)-1H-indazol-5-yl)-1-(2-(trifluoromethyl)benzyl)pyridin-2(1H)-one] | 1000 to 5000 | < 10
Cc1cc(-c2n[nH]c3ccc(-c4ccn(Cc5ccccc5)c(=O)c4)cc23)ccn1 [Example 60, 1-benzyl-4-(3-(2-methylpyridin-4-yl)-1H-indazol-5-yl)pyridin-2(1H)-one] | 500 to 1000 | < 10
Cc1cc(-c2n[nH]c3ccc(-c4ccn(Cc5ccc(F)c(F)c5)c(=O)c4)cc23)ccn1 [Example 61, 1-(3,4-difluorobenzyl)-4-(3-(2-methylpyridin-4-yl)-1H-indazol-5-yl)pyridin-2(1H)-one] | 500 to 1000 | < 10
Cc1cc(-c2n[nH]c3ccc(-c4ccn(Cc5ccc(Cl)c(F)c5)c(=O)c4)cc23)ccn1 [Example 62, 1-(4-chloro-3-fluorobenzyl)-4-(3-(2-methylpyridin-4-yl)-1H-indazol-5-yl)pyridin-2(1H)-one] | 500 to 1000 | < 10
Cc1cc(-c2n[nH]c3ccc(-c4ccn(Cc5cccc(Cl)c5F)c(=O)c4)cc23)ccn1 [Example 63, 1-(3-chloro-2-fluorobenzyl)-4-(3-(2-methylpyridin-4-yl)-1H-indazol-5-yl)pyridin-2(1H)-one] | 500 to 1000 | < 10
Cc1cc(-c2n[nH]c3ccc(-c4ccn(Cc5ccc(C#N)cc5)c(=O)c4)cc23)ccn1 [Example 64, 4-((4-(3-(2-methylpyridin-4-yl)-1H-indazol-5-yl)-2-oxopyridin-1(2H)-yl)methyl)benzonitrile] | 1000 to 5000 | < 10
Cc1cc(-c2n[nH]c3ccc(-c4ccn(Cc5ccc(F)c(Cl)c5)c(=O)c4)cc23)ccn1 [Example 65, 1-(3-chloro-4-fluorobenzyl)-4-(3-(2-methylpyridin-4-yl)-1H-indazol-5-yl)pyridin-2(1H)-one] | 500 to 1000 | < 10
Cc1cc(-c2n[nH]c3ccc(-c4ccn(Cc5cc(Cl)ccc5F)c(=O)c4)cc23)ccn1 [Example 66] | 500 to 1000 | < 10
Cc1cc(-c2n[nH]c3ccc(-c4ccn(Cc5cccc(OC(F)(F)F)c5)c(=O)c4)cc23)ccn1 [Example 67, 4-(3-(2-methylpyridin-4-yl)-1H-indazol-5-yl)-1-(3-(trifluoromethoxy)benzyl)pyridin-2(1H)-one] | 1000 to 5000 | < 10
Cc1cc(-c2n[nH]c3ccc(-c4ccn(Cc5cccc(F)c5)c(=O)c4)cc23)ccn1 [Example 68, 1-(3-fluorobenzyl)-4-(3-(2-methylpyridin-4-yl)-1H-indazol-5-yl)pyridin-2(1H)-one] | 1000 to 5000 | < 10
Cc1cc(-c2n[nH]c3ccc(-c4ccn(Cc5ccc(Br)c(F)c5)c(=O)c4)cc23)ccn1 [Example 69, 1-(4-bromo-3-fluorobenzyl)-4-(3-(2-methylpyridin-4-yl)-1H-indazol-5-yl)pyridin-2(1H)-one] | 500 to 1000 | < 10
Cc1cc(-c2n[nH]c3ccc(-c4ccn(Cc5cccc(C(F)(F)F)c5)c(=O)c4)cc23)ccn1 [Example 70, 4-(3-(2-methylpyridin-4-yl)-1H-indazol-5-yl)-1-(3-(trifluoromethyl)benzyl)pyridin-2(1H)-one] | 500 to 1000 | < 10
